US7935670B2, “Hepatitis C virus inhibitors” (Bristol-Myers Squibb Company, priority 2006, dated 2011)
Like-named read-outs stand apart in the source and are kept apart here.

How the values were obtained:
[1] = tested on: HCV replicon in HUH-7 cells; experiment: HCV replicon FRET assay; format: cell-based, HCV strain 1b; conditions: Hepatitis C virus
From the text: An HCV replicon whole cell system was established as described by Lohmann V, Korner F, Koch J, Herian U, Theilmann L, Bartenschlager R., Science 285(5424): 110-3 (1999). This system enabled us to evaluate the effects of our HCV Protease compounds on HCV RNA replication. Briefly, using the HCV strain 1b sequence described in the Lohmann paper (Assession number: AJ238799), an HCV cDNA was synthesized by Operon Technologies, Inc. (Alameda, Calif.), and the full-length replicon was then assembled in plasmid pGem9zf(+) (Promega, Madison, Wis.) using standard molecular biology techniques. The replicon consists of (i) the HCV 5′ UTR fused to the first 12 amino acids of the capsid protein, (ii) the neomycin phosphotransferase gene (neo), (iii) the IRES from encephalomyocarditis virus (EMCV), and (iv) HCV NS3 to NS5B genes and the HCV 3′ UTR. Plasmid DNAs were linearized with ScaI and RNA transcripts were synthesized in vitro using the T7 MegaScript transcription kit (Ambion, Austin, Tex.) according to manufacturer's directions. In vitro transcripts of the cDNA were transfected into the human hepatoma cell line, HUH-7. […] Resulting cell lines were characterized for positive and negative strand RNA production and protein production over time.
The HCV replicon FRET assay was developed to monitor the inhibitory effects of compounds described in the disclosure on HCV viral replication. HUH-7 cells, constitutively expressing the HCV replicon, were grown in Dulbecco's Modified Eagle Media (DMEM) (Gibco-BRL) containing 10% Fetal calf serum (FCS) (Sigma) and 1 mg/ml G418 (Gibco-BRL). Cells were seeded the night before (1.5×10^4 cells/well) in 96-well tissue-culture sterile plates. Compound and no compound controls were prepared in DMEM containing 4% FCS, 1:100 Penicillin/Streptomysin (Gibco-BRL), 1:100 L-glutamine and 5% DMSO in the dilution plate (0.5% DMSO final concentration in the assay). Compound/DMSO mixes were added to the cells and incubated for 4 days at 37° C. After 4 days, cells were first assessed for cytotoxicity using alamar Blue (Trek Diagnotstic Systems) for a CC50 reading. The toxicity of compound (CC50) was determined by adding 1/10th volume of alamar Blue to the media incubating the cells. After 4 h, the fluorescence signal from each well was read, with an excitation wavelength at 530 nm and an emission wavelength of 580 nm, using the Cytofluor Series 4000 (Perspective Biosystems). Plates were then rinsed thoroughly with Phosphate-Buffered Saline (PBS) (3 times 150 μl). The cells were lysed with 25 μl of a lysis assay reagent containing an HCV protease substrate (5× cell Luciferase cell culture lysis reagent (Promega #E153A) diluted to 1× with distilled water, NaCl added to 150 mM final, the FRET peptide substrate (as described for the enzyme assay above) diluted to 10 μM final from a 2 mM stock in 100% DMSO. The plate was then placed into the Cytofluor 4000 instrument which had been set to 340 nm excitation/490 nm emission, automatic mode for 21 cycles and the plate read in a kinetic mode. EC50 determinations were carried out as described for the IC50 determinations.

[2] = tested on: HCV replicon (Renilla luciferase reporter) in HUH-7 cells; experiment: HCV replicon luciferase reporter assay; format: cell-based, HCV strain 1b; conditions: Huh-7, 96 h, 4 days

Work on `C=C[C@@H]1C[C@]1(NC(=O)[C@@H]1C[C@@H](OC(=O)c2ccccc2)CN1C(=O)[C@@H](NC(=O)OC(C)(C)C)C(C)(C)C)C(=O)NS(=O)(=O)C1CC1` [Compound 1] yielded an EC50 ([1]; 96 h, HUH-7 replicon cells, 4 days, read-out: EC50 in the replicon FRET assay) of 484 nM, an EC50 ([1]; Huh-7, read-out: Activity Range (EC50)) of 200 to 1000 nM and an EC50 [2] of 51 nM.
